± gives the uncertainty stated by the source.
Assay: xn = mol fraction of the nth substance listed

BrC(Br)Br + CO
318 K, 101.33 kPa
Settings	viscosity [mPa·s]
x1 = 0.163	0.6935 ± 0.039
x1 = 0.3122	0.8844 ± 0.039
x1 = 0.4563	1.043 ± 0.039
x1 = 0.7234	1.261 ± 0.039
x1 = 0.8987	1.383 ± 0.039

C=Cc1ccccc1 + CO
viscosity [mPa·s], 101.33 kPa
Settings	x1 = 0.1005	x1 = 0.192	x1 = 0.3007	x1 = 0.4018	x1 = 0.4981	x1 = 0.5994	x1 = 0.7011	x1 = 0.8049	x1 = 0.8981
298.15 K	0.591 ± 0.032	0.623 ± 0.033	0.65 ± 0.034	0.669 ± 0.035	0.679 ± 0.036	0.686 ± 0.036	0.692 ± 0.036	0.701 ± 0.037	0.706 ± 0.037
303.15 K	0.55 ± 0.03	0.583 ± 0.031	0.608 ± 0.033	0.618 ± 0.033	0.634 ± 0.034	0.642 ± 0.034	0.646 ± 0.034	0.655 ± 0.035	0.661 ± 0.035
308.15 K	0.515 ± 0.029	0.543 ± 0.03	0.569 ± 0.031	0.587 ± 0.032	0.594 ± 0.032	0.598 ± 0.032	0.602 ± 0.032	0.61 ± 0.033	0.617 ± 0.033

CCC(C)(C)OC + CO
298.15 K, 101.33 kPa
Settings	viscosity [mPa·s]
x1 = 0.005	0.55 ± 0.005
x1 = 0.0339	0.554 ± 0.005
x1 = 0.0488	0.556 ± 0.005
x1 = 0.0714	0.557 ± 0.005
x1 = 0.1129	0.555 ± 0.005
x1 = 0.1508	0.552 ± 0.005
x1 = 0.1987	0.546 ± 0.005
x1 = 0.2009	0.546 ± 0.005
x1 = 0.2338	0.541 ± 0.005
x1 = 0.2861	0.532 ± 0.005
x1 = 0.3409	0.524 ± 0.005
x1 = 0.379	0.516 ± 0.005
x1 = 0.4252	0.508 ± 0.005
x1 = 0.4676	0.5 ± 0.005
x1 = 0.5142	0.491 ± 0.005
x1 = 0.5503	0.486 ± 0.005
x1 = 0.6236	0.477 ± 0.005
x1 = 0.6574	0.473 ± 0.005
x1 = 0.6944	0.468 ± 0.006
x1 = 0.7437	0.462 ± 0.006
x1 = 0.7936	0.457 ± 0.006
x1 = 0.8642	0.45 ± 0.006
x1 = 0.9029	0.446 ± 0.006

CCCCCCCCO + CO
viscosity [mPa·s], 101 kPa
Settings	298.15 K	308.15 K	318.15 K
x2 = 0.05	6.856 ± 0.066	4.941 ± 0.047	3.665 ± 0.034
x2 = 0.1	6.367 ± 0.061	4.633 ± 0.044	3.463 ± 0.032
x2 = 0.15	5.895 ± 0.056	4.331 ± 0.04	3.263 ± 0.03
x2 = 0.2	5.44 ± 0.051	4.035 ± 0.037	3.065 ± 0.028
x2 = 0.25	5.002 ± 0.047	3.746 ± 0.034	2.87 ± 0.026
x2 = 0.3	4.581 ± 0.043	3.464 ± 0.031	2.676 ± 0.024
x2 = 0.35	4.176 ± 0.038	3.189 ± 0.029	2.485 ± 0.022
x2 = 0.4	3.789 ± 0.034	2.921 ± 0.026	2.296 ± 0.02
x2 = 0.45	3.418 ± 0.031	2.661 ± 0.024	2.11 ± 0.018
x2 = 0.5	3.064 ± 0.027	2.41 ± 0.021	1.927 ± 0.017
x2 = 0.55	2.727 ± 0.024	2.166 ± 0.019	1.748 ± 0.015
x2 = 0.6	2.408 ± 0.021	1.933 ± 0.017	1.573 ± 0.014
x2 = 0.65	2.106 ± 0.018	1.708 ± 0.015	1.403 ± 0.012
x2 = 0.7	1.823 ± 0.016	1.495 ± 0.013	1.239 ± 0.011
x2 = 0.75	1.559 ± 0.013	1.292 ± 0.011	1.081 ± 0.0094
x2 = 0.8	1.314 ± 0.011	1.101 ± 0.0095	0.9299 ± 0.0081
x2 = 0.85	1.089 ± 0.0093	0.9227 ± 0.008	0.787 ± 0.007
x2 = 0.9	0.8845 ± 0.0077	0.7578 ± 0.0067	0.6532 ± 0.0059
x2 = 0.95	0.7018 ± 0.0062	0.6071 ± 0.0055	0.5296 ± 0.0049

BrC(Br)Br + COC(C)=O
viscosity [mPa·s], 101 kPa
Settings	x1 = 0.0997	x1 = 0.1981	x1 = 0.2985	x1 = 0.406	x1 = 0.5052	x1 = 0.6046	x1 = 0.7016	x1 = 0.7984	x1 = 0.89
298.15 K	0.4806 ± 0.0065	–	0.7148 ± 0.0078	0.8716 ± 0.0086	1.039 ± 0.0097	1.215 ± 0.011	1.403 ± 0.013	1.6 ± 0.015	1.783 ± 0.016
303.15 K	0.4671 ± 0.0063	0.5871 ± 0.007	0.6791 ± 0.0074	0.8247 ± 0.0083	0.9763 ± 0.0092	1.141 ± 0.01	1.297 ± 0.012	1.5 ± 0.014	1.671 ± 0.015
308.15 K	0.4465 ± 0.0063	0.5511 ± 0.0068	0.6431 ± 0.0073	0.7797 ± 0.008	0.9244 ± 0.0089	1.07 ± 0.0098	1.207 ± 0.011	1.405 ± 0.013	1.57 ± 0.014
313.15 K	0.4263 ± 0.0062	0.511 ± 0.0067	0.6007 ± 0.007	0.7368 ± 0.0078	0.8701 ± 0.0086	1.009 ± 0.0094	1.141 ± 0.01	1.317 ± 0.012	1.471 ± 0.014

CC(C)(C)N + COC(C)=O
303.15 K, 101 kPa
Settings	viscosity [mPa·s]
x1 = 0.1513	0.3868 ± 0.0035
x1 = 0.247	0.4006 ± 0.0036
x1 = 0.3175	0.4155 ± 0.0037
x1 = 0.4152	0.4301 ± 0.0038
x1 = 0.5361	0.4379 ± 0.0038
x1 = 0.7023	0.4413 ± 0.0039
x1 = 0.771	0.4432 ± 0.0039
x1 = 0.8641	0.4438 ± 0.0039

BrC(Br)Br + COCCO
viscosity [mPa·s], 101.3 kPa
Settings	x1 = 0.097	x1 = 0.198	x1 = 0.297	x1 = 0.401	x1 = 0.499	x1 = 0.6	x1 = 0.697	x1 = 0.798	x1 = 0.9
298.15 K	1.922 ± 0.024	2.097 ± 0.026	2.22 ± 0.028	2.27 ± 0.028	2.245 ± 0.028	2.183 ± 0.027	2.094 ± 0.026	2.003 ± 0.025	1.932 ± 0.024
303.15 K	1.719 ± 0.022	1.872 ± 0.024	1.984 ± 0.025	2.03 ± 0.025	2.014 ± 0.025	1.972 ± 0.025	1.909 ± 0.024	1.842 ± 0.023	1.794 ± 0.023
308.15 K	1.549 ± 0.02	1.68 ± 0.021	1.774 ± 0.022	1.825 ± 0.023	1.817 ± 0.023	1.792 ± 0.023	1.748 ± 0.022	1.702 ± 0.022	1.676 ± 0.021

Source: the CheMixHub viscosity set
